Our source for the CC50 values is ChEMBL document CHEMBL1136177, “Neuroprotective or neurotoxic activity of 1-methyl-1,2,3,4-tetrahydroisoquinoline and related compounds” (Bioorg Med Chem Lett, 2003).

This data set in a line: Neurotoxicity against human neuroblastoma SH-SY5Y cells using MTT dye conversion assay.

`CC1NCCc2ccc(O)cc21` (stereo not drawn) came in with a CC50 of 4.15 mM. For the molecule `COc1cc2c(cc1OC)C(C)NCC2` (stereo not drawn), the cytotoxic concentration (CC50) turned out to be 2.73 mM. `CC1NCCc2cc(O)ccc21` (stereo not drawn) gave a half-maximal cytotoxic concentration (CC50) of 3.63 mM. In the case of `CC1NCCc2c(O)cccc21` (stereo not drawn) it was 3.38 mM; in that of `COc1cccc2c1CCNC2C` (stereo not drawn), 2.45 mM. Consider `COc1ccc2c(c1)CCNC2C` (stereo not drawn), for which the CC50 was found to be 2.79 mM. `COc1ccc2c(c1)C(C)NCC2` (stereo not drawn): the CC50 is 1.39 mM. With `CC1NCCc2cc(O)c(O)cc21` (stereo not drawn), the 50% cytotoxic concentration (CC50) came to 0.034 mM.
